From BindingDB's records for doi:10.1021/jm00036a015 (University of Minnesota, 1994) come the findings set out here.

This assay is described as follows: The binding affinity on delta-opioid receptor using [3H]- DPDPE as radioligand.
Broadly, the Ki is a measure of affinity in units of concentration, obtained from inhibition or displacement. Read a low Ki as a stronger hold on the target. As to `N=C(N)NCCN1CC[C@]23c4c5ccc(O)c4O[C@H]2c2[nH]c4c(c2C[C@@]3(O)[C@H]1C5)C[C@@]1(O)[C@H]2Cc3ccc(O)c5c3C1(CCN2CC1CC1)[C@H]4O5` [17-(cyclopropylmethyl)-17'-(2-guanidinoethyl-6,6',7,7'-tetradehydro-4,5:4',5'-diepoxy-6,6'-imino-7,7'-bimorphinan-3,3',14,14'-tetrol], the affinity corresponds to a Ki of 37 nM. That is a double-digit nanomolar value.

`CCCCN1CC[C@]23c4c5ccc(O)c4O[C@H]2c2[nH]c4c(c2C[C@@]3(O)[C@H]1C5)C[C@@]1(O)[C@H]2Cc3ccc(O)c5c3[C@@]1(CCN2CC1CC1)[C@H]4O5` [17-(cyclopropylmethyl)-17'-butyl-6,6',7,7'-tetradehydro-4,5:4',5'-diepoxy-6,6'-imino-7,7'-bimorphinan-3,3',14,14'-tetrol] came in with a Ki of 15 nM.

On to `NCCN1CC[C@]23c4c5ccc(O)c4O[C@H]2c2[nH]c4c(c2C[C@@]3(O)[C@H]1C5)C[C@@]1(O)[C@H]2Cc3ccc(O)c5c3[C@@]1(CCN2CC1CC1)[C@H]4O5` [17-(cyclopropylmethyl)-17'-aminoethyl-6,6',7,7'-tetradehydro-4,5:4',5'-diepoxy-6,6'-imino-7,7'-bimorphinan-3,3',14,14'-tetrol], for which the Ki came out at 137 nM.
